Target: human KOR receptor (Homo sapiens, UniProt P41145)
Assay: IP-One HTRF assay, potency of KOR agonists, dose-response in transiently transfected COS-7 cells
Assay type: cell-based

Chain of human KOR receptor (P41145 whole entry): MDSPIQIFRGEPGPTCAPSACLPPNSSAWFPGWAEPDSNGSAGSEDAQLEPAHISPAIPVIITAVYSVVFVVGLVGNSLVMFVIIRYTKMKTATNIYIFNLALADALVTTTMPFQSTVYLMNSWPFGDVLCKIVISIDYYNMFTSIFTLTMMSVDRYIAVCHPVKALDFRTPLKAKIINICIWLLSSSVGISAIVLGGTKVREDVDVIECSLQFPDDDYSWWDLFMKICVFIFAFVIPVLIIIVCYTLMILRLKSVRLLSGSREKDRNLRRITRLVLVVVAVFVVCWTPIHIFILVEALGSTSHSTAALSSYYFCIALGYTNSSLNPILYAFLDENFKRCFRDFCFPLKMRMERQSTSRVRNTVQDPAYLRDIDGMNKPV

Row | Structure (SMILES) | EC50 [nM]
1 | CN(C(=O)Cc1ccc2c(c1)NC(=O)C2)[C@H](CN1CC[C@H](O)C1)c1cccc(OCC(=O)NS(C)(=O)=O)c1 [Example 27, N-((S)-2-((S)-3-hydroxypyrrolidin-1-yl)-1-(3-(2-(methylsulfonamido)-2-oxoethoxy)phenyl)ethyl)-N-methyl-2-(2-oxoindolin-6-yl)acetamide] | 51 to 100
2 | CN(C(=O)Cc1ccc2c(c1)NC(=O)C2)[C@H](CN1CC[C@H](O)C1)c1cccc(C(N)=O)c1 [Example 24, 3-((S)-2-((S)-3-hydroxypyrrolidin-1-yl)-1-(N-methyl-2-(2-oxoindolin-6-yl)acetamido)ethyl) benzamide] | ≤ 50
3 | CC(C)(C)OC(=O)Cn1c(=O)oc2ccc(CC(=O)N[C@H](CN3CCCC3)c3ccccc3)cc21 [Example 82, (S)-tert-butyl-2-(2-oxo-5-(2-oxo-2-(1-phenyl-2-(pyrrolidin-1-yl)ethylamino)ethyl)benzo[d]oxazol-3(2H)-yl)acetate] | ≤ 50
4 | COC(=O)c1ccc(Cn2c(=O)oc3ccc(CC(=O)N(C)[C@H](CN4CC[C@H](O)C4)c4ccccc4)cc32)cc1 [Example 98, Methyl 4-((5-(2-(((S)-2-((S)-3-hydroxypyrrolidin-1-yl)-1-phenylethyl)(methyl)amino)-2-oxoethyl)-2-oxobenzo[d]oxazol-3(2H)-yl)methyl)benzoate] | ≤ 50
5 | CN(C)C(=O)c1cccc([C@@H](CN2CC[C@H](O)C2)N(C)C(=O)Cc2ccc3c(c2)NC(=O)C3)c1 [Example 207, 3-((S)-2-((S)-3-hydroxypyrrolidin-1-yl)-1-(N-methyl-2-(2-oxoindolin-6-yl)acetamido)ethyl)-N,N-dimethylbenzamide] | ≤ 50
6 | CCN(CC)C(=O)COc1cccc([C@@H](CN2CC[C@H](O)C2)N(C)C(=O)Cc2ccc3c(c2)NC(=O)C3)c1 [Example 41, N-((S)-1-(3-(2-(diethylamino)-2-oxoethoxy)phenyl)-2-((S)-3-hydroxypyrrolidin-1-yl)ethyl)-N-methyl-2-(2-oxoindolin-6-yl)acetamide] | ≤ 50
7 | CN(C(=O)Cc1ccc2ncc(=O)[nH]c2c1)[C@H](CN1CC[C@H](O)C1)c1cccc(OCC(=O)O)c1 [Example 171, 2-(3-((S)-2-((S)-3-hydroxypyrrolidin-1-yl)-1-(N-methyl-2-(3-oxo-3,4-dihydroquinoxalin-6-yl)acetamido)ethyl)phenoxy)acetic acid] | ≤ 50
8 | Cc1nnc(-c2cccc([C@@H](CN3CC[C@H](O)C3)N(C)C(=O)Cc3ccc4c(c3)NC(=O)C4)c2)o1 [Example 224, N-((S)-2-((S)-3-hydroxypyrrolidin-1-yl)-1-(3-(5-methyl-1,3,4-oxadiazol-2-yl)phenyl)ethyl)-N-methyl-2-(2-oxoindolin-6-yl)acetamide] | ≤ 50
9 | CCC#Cc1cccc([C@@H](CN2CC[C@H](O)C2)N(C)C(=O)Cc2ccc3sc(=O)[nH]c3c2)c1 [Example 205, N-((S)-1-(3-(but-1-yn-1-yl)phenyl)-2-((S)-3-hydroxypyrrolidin-1-yl)ethyl)-N-methyl-2-(2-oxo-2,3-dihydrobenzo[d]thiazol-5-yl)acetamide] | ≤ 50
10 | CN(C(=O)Cc1ccc2sc(=O)[nH]c2c1)[C@H](CN1CC[C@H](O)C1)c1cccc(OCC(N)=O)c1 [Example 170, N-((S)-1-(3-(2-amino-2-oxoethoxy)phenyl)-2-((S)-3-hydroxypyrrolidin-1-yl)ethyl)-N-methyl-2-(2-oxo-2,3-dihydrobenzo[d]thiazol-5-yl)acetamide] | ≤ 50
11 | CN(C(=O)Cc1ccc2c(c1)NC(=O)CS2(=O)=O)C(CN1CCC(O)C1)c1cccc(C2CC2)c1 (stereo in doubt) [Example 150, N-((S)-1-(3-cyclopropylphenyl)-2-((S)-3-hydroxypyrrolidin-1-yl)ethyl)-2-(1,1-dioxido-3-oxo-3,4-dihydro-2H-benzo[b][1,4]thiazin-6-yl)-N-methylacetamide] | ≤ 50
12 | O=C1Cc2cc(CC(=O)N[C@H](CN3CC[C@H](O)C3)c3ccccc3)ccc2N1 [Example 157, N-((S)-2-((S)-3-hydroxypyrrolidin-1-yl)-1-phenylethyl)-2-(2-oxoindolin-5yl)acetamide] | ≤ 50
13 | CN(C(=O)Cc1ccc2c(c1)NS(=O)(=O)C2)[C@H](CN1CC[C@H](O)C1)c1cccc(-c2nn[nH]n2)c1 [Example 79, N-((S)-1-(3-(1H-tetrazol-5-yl)phenyl)-2-((S)-3-hydroxypyrrolidin-1-yl)ethyl)-2-(2,2-dioxido-1,3-dihydrobenzo[c]isothiazol-6-yl)-N-methylacetamide] | ≤ 50
14 | CCN(CC)C(=O)c1cccc([C@@H](CN2CC[C@H](O)C2)N(C)C(=O)Cc2ccc3ncc(=O)[nH]c3c2)c1 [Example 209, N,N-diethyl-3-((S)-2-((S)-3-hydroxypyrrolidin-1-yl)-1-(N-methyl-2-(3-oxo-3,4-dihydroquinoxalin-6-yl)acetamido)ethyl)benzamide 2,2,2-trifluoroacetate] | ≤ 50
15 | CN(C(=O)Cc1ccc2c(c1)NC(=O)C2)[C@H](CN1CC[C@H](O)C1)c1cccc(-c2ncc[nH]2)c1 [Example 198, N-((S)-1-(3-(1H-imidazol-2-yl)phenyl)-2-((S)-3-hydroxypyrrolidin-1-yl)ethyl)-N-methyl-2-(2-oxoindolin-6-yl)acetamide 2,2,2-trifluoroacetate] | ≤ 50
16 | CN(C(=O)Cc1ccc2c(c1)NC(=O)CS2)[C@H](CN1CC[C@H](O)C1)c1cccc(OCC(=O)O)c1 [Example 172, 2-(3-((S)-2-((S)-3-hydroxypyrrolidin-1-yl)-1-(N-methyl-2-(3-oxo-3,4-dihydro-2H-benzo[b][1,4]thiazin-6-yl)acetamido)ethyl)phenoxy)acetic acid] | ≤ 50
17 | CN(C)C(=O)c1cccc([C@@H](CN2CC[C@H](O)C2)N(C)C(=O)Cc2ccc3sc(=O)[nH]c3c2)c1 [Example 40, 3-((S)-2-((S)-3-hydroxypyrrolidin-1-yl)-1-(N-methyl-2-(2-oxo-2,3-dihydrobenzo[d]thiazol-5-yl)acetamido)ethyl)-N,N-dimethylbenzamide-2,2,2-trifluoroacetate] | ≤ 50
18 | Cc1nc(-c2cccc([C@@H](CN3CC[C@H](O)C3)N(C)C(=O)Cc3ccc4sc(=O)[nH]c4c3)c2)no1 [Example 183, N-((S)-2-((S)-3-hydroxypyrrolidin-1-yl)-1-(3-(5-methyl-1,2,4-oxadiazol-3-yl)phenyl)ethyl)-N-methyl-2-(2-oxo-2,3-dihydrobenzo[d]thiazol-5-yl)acetamide] | ≤ 50
19 | CN(C(=O)Cc1ccc2ncc(=O)[nH]c2c1)[C@H](CN1CC[C@H](O)C1)c1cccc(C(=O)NCC(F)(F)F)c1 [Example 196, 3-((S)-2-((S)-3-hydroxypyrrolidin-1-yl)-1-(N-methyl-2-(3-oxo-3,4-dihydroquinoxalin-6-yl)acetamido)ethyl)-N-(2,2,2-trifluoroethyl)benzamide] | ≤ 50
20 | CN(C(=O)Cc1ccc2sc(=O)[nH]c2c1)[C@H](CN1CC[C@H](O)C1)c1cccc(OCC(=O)O)c1 [Example 166, 2-(3-((S)-2-((S)-3-hydroxypyrrolidin-1-yl)-1-(N-methyl-2-(2-oxo-2,3-dihydrobenzo [d]thiazol-5-yl)acetamido)ethyl)phenoxy)acetic acid] | ≤ 50
